Reference: patent US20230203098A1, “HUMAN TRANSFERRIN RECEPTOR BINDING PEPTIDE” (priority 2020, published 2023)
Where two headings read alike, the source gives them in different places. Each block holds one compound with its values, some of them ahead of it. Where a SMILES comes first, the peptide text is derived from it. Bridges are numbered along the chain shown (N, C = ends). [ ]: non-standard residue; d: D form. The star is where a group is joined. X2 = O=C(O)c1cc(C(=O)*)ccc1-c1c2ccc(=O)cc-2oc2cc(O)ccc12; PEG12 = NCCOCCOCCOCCOCCOCCOCCOCCOCCOCCOCCOCCOCCC(=O)O; NMePhe(3-Cl) = CN[C@@H](Cc1cccc(Cl)c1)C(=O)O; NMeW = CN[C@@H](Cc1c[nH]c2ccccc12)C(=O)O; Phe(4-F) = N[C@@H](Cc1ccc(F)cc1)C(=O)O; NMeY = CN[C@@H](Cc1ccc(O)cc1)C(=O)O; NMeF = CN[C@@H](Cc1ccccc1)C(=O)O; Chg = N[C@H](C(=O)O)C1CCCCC1; PEG4 = NCCOCCOCCOCCOCCC(=O)O; Nva = CCC[C@H](N)C(=O)O; Dap = NC[C@H](N)C(=O)O

Molecular target: transferrin receptor (hTfR) (Homo sapiens, UniProt P02786)
Sequence (P02786 whole entry): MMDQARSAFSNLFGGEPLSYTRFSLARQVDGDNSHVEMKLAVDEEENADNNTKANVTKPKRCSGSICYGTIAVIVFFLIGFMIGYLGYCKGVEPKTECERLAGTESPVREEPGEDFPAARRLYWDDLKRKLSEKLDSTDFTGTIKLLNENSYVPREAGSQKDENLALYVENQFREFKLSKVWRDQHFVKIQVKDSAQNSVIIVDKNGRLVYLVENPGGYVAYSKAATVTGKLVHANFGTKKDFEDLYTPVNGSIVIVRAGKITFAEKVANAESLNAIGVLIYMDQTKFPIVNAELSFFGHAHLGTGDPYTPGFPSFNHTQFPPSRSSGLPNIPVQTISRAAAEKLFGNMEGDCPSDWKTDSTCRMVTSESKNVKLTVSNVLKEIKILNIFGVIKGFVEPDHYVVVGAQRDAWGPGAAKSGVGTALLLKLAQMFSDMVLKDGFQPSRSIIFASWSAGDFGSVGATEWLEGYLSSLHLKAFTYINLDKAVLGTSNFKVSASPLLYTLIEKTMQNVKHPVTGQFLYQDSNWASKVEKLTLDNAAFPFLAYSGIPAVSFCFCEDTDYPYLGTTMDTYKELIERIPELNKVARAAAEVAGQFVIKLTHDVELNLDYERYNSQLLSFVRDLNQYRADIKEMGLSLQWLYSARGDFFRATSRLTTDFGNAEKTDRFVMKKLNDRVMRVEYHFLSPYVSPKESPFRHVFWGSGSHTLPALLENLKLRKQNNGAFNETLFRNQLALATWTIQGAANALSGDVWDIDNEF
Assay: Intermolecular interaction evaluation test between transferrin receptor (hTfR) and peptide by surface plasmon resonance (SPR)
Type: binding
Experimental: For each of the various synthesized peptides, the intermolecular interaction of the peptide with the transferrin receptor (hTfR) was tested by surface plasmon resonance (SPR) according to the following method. The specific test method is as follows.
An NTA sensor chip (Global Life Sciences Technologies Japan) was inserted in a Biacore T200 (Global Life Sciences Technologies Japan) and a prime operation was performed 3 times with a running buffer: 10 mM HEPES pH 8.0 (Nacalai Tesque), 150 mM NaCl (Nacalai Tesque), 0.05% Tween 20 (Nacalai Tesque), 0.1% BSA (Sigma-Aldrich), 1.0% DMSO (FUJIFILM Wako Pure Chemical) to create an Equilibration state at a flow rate of 30 µL/min. After reacting with 350 mM EDTA solution for 60 seconds at a flow rate of 10 µL/min then reacting with 0.5 mM NiCl2 solution (Kishida Chemical) for 60 seconds at a flow rate of 10 µL/min, the NTA sensor chip was washed with 3 mM EDTA solution (Nacalai Tesque) for 60 seconds at a flow rate of 10 µL/min. After mixing 50 µL each of 60 mM EDC solution (Global Life Sciences Technologies Japan) and 650 mM NHS solution (Global Life Sciences Technologies Japan), the mixture was reacted for 420 seconds at a flow rate of 10 µL/min. By diluting with the running buffer, 150 µL of 3.2 µM hTfR solution was prepared and used for reaction for 600 seconds at a flow rate of 10 µL/min, thereby immobilizing hTfR on the NTA sensor chip. After immobilization, capping was performed by reacting with 1.0 M ethanolamine aqueous solution (Global Life Sciences Technologies Japan) for 420 seconds at a flow rate of 10 µL/min. A peptide dissolution liquid prepared to 10 mM in the DMSO solution was diluted with the running buffer to a final concentration of 10 µM so as to become the peptide dissolution liquid, then peptide solutions of 100 nM, 50 nM, 25 nM, 10 nM and 5 nM were prepared. Kinetics of the peptide to hTfR was acquired by SPR measurement using the above-mentioned samples. Single-cycle kinetics was used as a kinetic evaluation model and curve fitting was performed using Biacore T200 Evaluation Software Version 3.0 (Global Life Sciences Technologies Japan). An obtained sensorgram was subjected to curve fitting using the least-squares method, and the binding of the peptide to hTfR was evaluated by obtaining KD values. […] A chemical structure of hTfR No. 894 is as follows.
The variant peptides were synthesized according to Example 1 unless otherwise stated in Example 9 or 10. The linker-added peptides were synthesized according to Example 1, except that Fmoc-NH-SAL-PEG resin (Watanabe Chemical Industries) was used as a resin for the peptide synthesis when the linker was PEG. The peptide, to which a peptide, a fatty acid, PEG, or a conjugate thereof is added as a linker, was also synthesized according to Example 1, unless otherwise stated in Example 9 or 10.

[1] = surface plasmon resonance, peptide vs hTfR, read-out: KD value, hTfR binding by SPR (class symbol)
[2] = SPR, hTfR, class symbols A-D, read-out: KD

Kd (surface plasmon resonance, peptide vs hTfR, read-out: KD value for hTfR by SPR (class symbol)): 0.001 to 0.1 µM
SMILES: CC[C@H](C)[C@@H]1NC(=O)[C@H](Cc2ccc(O)cc2)NC(=O)[C@H](Cc2ccc(O)cc2)NC(=O)[C@H](CC(N)=O)NC(=O)[C@H](Cc2c[nH]c3ccccc23)N(C)C(=O)[C@H](C(C)C)NC(=O)[C@H](Cc2cccc(Cl)c2)N(C)C(=O)[C@@H]2CCC(=O)N3CCC[C@@H]3C(=O)NCCCC[C@H](NC(=O)[C@H]([C@@H](C)CC)NC1=O)C(=O)N[C@@H](CCCNC(=N)N)C(=O)N[C@@H](Cc1ccc(O)cc1)C(=O)N(C)[C@@H](Cc1ccc(O)cc1)C(=O)N[C@H](C(N)=O)CSCC(=O)N[C@@H](C)C(=O)N2 [compound 416]

Kd (SPR, peptides, linker-added peptides and FITC conjugates, Patent ID 203-230, read-out: KD): 0.1 to 1 µM
SMILES: CC[C@H](C)[C@@H]1NC(=O)[C@H](Cc2ccc(O)cc2)NC(=O)[C@H](Cc2ccc(O)cc2)NC(=O)[C@H](CC(N)=O)NC(=O)[C@H](Cc2c[nH]c3ccccc23)NC(=O)[C@H](C(C)C)NC(=O)[C@H](Cc2ccccc2)NC(=O)[C@H](C(C)C)NC(=O)[C@H](C)NC(=O)CSC[C@@H](C(=O)NCCOCCOCCOCCOCCOCCOCCOCCOCCOCCOCCOCCOCCC(=O)N[C@@H](CCCCNC(=O)c2ccc(-c3c4ccc(=O)cc-4oc4cc(O)ccc34)c(C(=O)O)c2)C(N)=O)NC(=O)[C@H](Cc2c[nH]cn2)NC(=O)[C@H](C(C)C)NC1=O [compound 204] ({CH2CO}-AVFVWNYYIVHC[PEG12]K(X2)-NH2; thioether N-12)

Kd [1]: 0.001 to 0.1 µM
SMILES: CC[C@H](C)[C@@H]1NC(=O)[C@H](Cc2ccc(OC)cc2)NC(=O)[C@H](Cc2ccc(O)cc2)NC(=O)[C@H](CC(N)=O)NC(=O)[C@H](Cc2c[nH]c3ccccc23)N(C)C(=O)[C@H](C(C)C)NC(=O)[C@H](Cc2cccc(Cl)c2)N(C)C(=O)[C@H](C(C)C)NC(=O)[C@H](C)NC(=O)CSC[C@@H](C(=O)NCCOCCOCCOCCOCCC(N)=O)NC(=O)[C@H](Cc2ccc(O)cc2)N(C)C(=O)[C@H](Cc2ccccc2)NC(=O)[C@@H](CCCNC(=N)N)NC(=O)[C@H](CCCNC(=N)N)NC(=O)[C@H](CN)NC1=O [compound 336] ({CH2CO}-AV[NMePhe(3-Cl)]V[NMeW]NYY(Me)I[Dap]R[dR]F[NMeY]C[PEG4]-NH2; thioether N-15)

Kd (binding to hTfR by SPR, Table 2 peptides, read-out: KD value (SPR) class): 0.1 to 1 µM
SMILES: CC[C@H](C)[C@@H]1NC(=O)[C@H](C2CCCCC2)NC(=O)[C@H](Cc2ccc(O)cc2)NC(=O)[C@H](Cc2ccc(O)cc2)NC(=O)[C@H](CC(N)=O)NC(=O)[C@H](Cc2c[nH]c3ccccc23)NC(=O)[C@H](C2CCCCC2)NC(=O)[C@H](Cc2ccccc2)N(C)C(=O)[C@H](C(C)C)NC(=O)[C@H](C)NC(=O)CSC[C@@H](C(N)=O)NC(=O)[C@H](Cc2ccc(O)cc2)N(C)C(=O)[C@H](Cc2ccc(O)cc2)NC(=O)[C@H](CCCNC(=N)N)NC(=O)[C@H](CCCNC(=N)N)NC1=O [compound 267] ({CH2CO}-AV[NMeF][Chg]WNYY[Chg]IRRY[NMeY]C-NH2; thioether N-15)

Kd [2]: 0.001 to 0.1 µM
SMILES: CC[C@H](C)[C@@H]1NC(=O)[C@H](Cc2ccc(F)cc2)NC(=O)[C@H](Cc2ccc(O)cc2)NC(=O)[C@H](CC(N)=O)NC(=O)[C@H](Cc2c[nH]c3ccccc23)N(C)C(=O)[C@H](C(C)C)NC(=O)[C@H](Cc2cccc(Cl)c2)N(C)C(=O)[C@H](C(C)C)NC(=O)[C@H](C)NC(=O)CSC[C@@H](C(N)=O)NC(=O)[C@H](Cc2ccc(O)cc2)N(C)C(=O)[C@H](Cc2ccccc2)NC(=O)[C@@H](CCCNC(=N)N)NC(=O)[C@H](CCCNC(=N)N)NC(=O)[C@H]([C@@H](C)CC)NC1=O [compound 467] ({CH2CO}-AV[NMePhe(3-Cl)]V[NMeW]NY[Phe(4-F)]IIR[dR]F[NMeY]C-NH2; thioether N-15)

Kd [1]: 0.001 to 0.1 µM
SMILES: CCC[C@@H]1NC(=O)[C@H]([C@@H](C)CC)NC(=O)[C@H](Cc2ccc(OC)cc2)NC(=O)[C@H](Cc2ccc(O)cc2)NC(=O)[C@H](CC(N)=O)NC(=O)[C@H](Cc2c[nH]c3ccccc23)N(C)C(=O)[C@H](C(C)C)NC(=O)[C@H](Cc2cccc(Cl)c2)N(C)C(=O)[C@H](C(C)C)NC(=O)[C@H](C)NC(=O)CSC[C@@H](C(=O)NCCOCCOCCOCCOCCC(N)=O)NC(=O)[C@H](Cc2ccc(O)cc2)N(C)C(=O)[C@H](Cc2ccccc2)NC(=O)[C@@H](CCCNC(=N)N)NC(=O)[C@H](CCCNC(=N)N)NC1=O [compound 326] ({CH2CO}-AV[NMePhe(3-Cl)]V[NMeW]NYY(Me)I[Nva]R[dR]F[NMeY]C[PEG4]-NH2; thioether N-15)

Kd (hTfR binding by SPR, hTfR No. 894 variant peptides, linker-added peptides and payload conjugates (Table 2), read-out: KD value obtained from the SPR measurement): 0.001 to 0.1 µM
SMILES: CC[C@H](C)[C@@H]1NC(=O)[C@H](Cc2ccc(O)cc2)NC(=O)[C@H](Cc2ccc(O)cc2)NC(=O)[C@H](CC(N)=O)NC(=O)[C@H](Cc2c[nH]c3ccccc23)N(C)C(=O)[C@H](C(C)C)NC(=O)[C@H](Cc2ccccc2)NC(=O)[C@H](C(C)C)NC(=O)[C@H](C)NC(=O)CSC[C@@H](C(=O)NCC(=O)N[C@@H](CO)C(=O)N[C@@H](CO)C(=O)NCC(=O)N[C@@H](CO)C(=O)N[C@@H](CO)C(=O)N[C@@H](CCCCNC(=O)C2CCC(CN3C(=O)C=CC3=O)CC2)C(N)=O)NC(=O)[C@H](Cc2ccc(O)cc2)N(C)C(=O)[C@H](Cc2ccc(O)cc2)NC(=O)[C@H](CCCNC(=N)N)NC(=O)[C@H](CCCNC(=N)N)NC(=O)[C@H]([C@@H](C)CC)NC1=O (stereo partly shown) [compound 197]

Kd [2]: 0.1 to 1 µM
SMILES: CC[C@H](C)[C@@H]1NC(=O)[C@H](Cc2ccc(OC)cc2)NC(=O)[C@H](Cc2ccc(O)cc2)NC(=O)[C@H](CC(N)=O)NC(=O)[C@H](Cc2c[nH]c3ccccc23)N(C)C(=O)[C@H](C(C)C)NC(=O)[C@H](Cc2ccncc2)N(C)C(=O)[C@H](C(C)C)NC(=O)[C@H](C)NC(=O)CSC[C@@H](C(N)=O)NC(=O)[C@H](Cc2ccc(O)cc2)N(C)C(=O)[C@H](Cc2ccccc2)NC(=O)[C@@H](CCCNC(=N)N)NC(=O)[C@H](CCCNC(=N)N)NC(=O)[C@H]([C@@H](C)CC)NC1=O [compound 451]

Kd (SPR, linker and payload (FITC, VivoTag) conjugates, read-out: KD): < 0.001 µM
SMILES: CC[C@H](C)[C@@H]1NC(=O)[C@H](Cc2ccc(O)cc2)NC(=O)[C@H](Cc2ccc(O)cc2)NC(=O)[C@H](CC(N)=O)NC(=O)[C@H](Cc2c[nH]c3ccccc23)NC(=O)[C@H](C(C)C)NC(=O)[C@H](Cc2ccccc2)NC(=O)[C@H](C(C)C)NC(=O)[C@H](C)NC(=O)CSC[C@@H](C(=O)NCCOCCOCCOCCOCCOCCOCCOCCOCCOCCOCCOCCOCCC(=O)N[C@@H](CCCCNC(=O)c2ccc(-c3c4ccc(=O)cc-4oc4cc(O)ccc34)c(C(=O)O)c2)C(N)=O)NC(=O)[C@H](CC(N)=O)NC(=O)[C@@H]2CCCN2C(=O)[C@H](C(C)C)NC(=O)[C@H](CC(N)=O)NC(=O)[C@H](CCCNC(=N)N)NC(=O)CNC(=O)[C@H](C(C)C)NC1=O [compound 152] ({CH2CO}-AVFVWNYYIVGRNVPNC[PEG12]K(X2)-NH2; thioether N-17)

Kd [1]: 0.001 to 0.1 µM
SMILES: CC[C@H](C)[C@@H]1NC(=O)[C@H](Cc2ccc(OCC(=O)O)cc2)NC(=O)[C@H](Cc2ccc(O)cc2)NC(=O)[C@H](CC(N)=O)NC(=O)[C@H](Cc2c[nH]c3ccccc23)N(C)C(=O)[C@H](C(C)C)NC(=O)[C@H](Cc2cccc(Cl)c2)N(C)C(=O)[C@H](C(C)C)NC(=O)[C@H](C)NC(=O)CSC[C@@H](C(N)=O)NC(=O)[C@H](Cc2ccc(O)cc2)N(C)C(=O)[C@H](Cc2ccccc2)NC(=O)[C@@H](CCCNC(=N)N)NC(=O)[C@H](CCCNC(=N)N)NC(=O)[C@H]([C@@H](C)CC)NC1=O [compound 320]
